The values below come from patent publication US20240197666A1, “DITERPENOID COMPOUNDS THAT ACT ON PROTEIN KINASE C (PKC)” (K-Gen Therapeutics, Inc., priority 2021, published 2024).

Structures are written as SMILES. Several values for one entry are separate records, joined by “and”; a condition that tells them apart may be missing. Equal values may be shown once. Read-outs that look alike come from different tables or passages of the source.

The test system of one experiment is A549 cell line. The experiment can be described thus: Proliferation of A549 (CellTiter Glo). The experiment is classed as cell-based. The following applies: read-out: IC50 μM (A549 Cell Line). As to the method: (§1) The diterpenoid compounds were tested in A549, a non-small cell lung cancer cell line harboring a K-Ras activating mutation. Briefly, A549 cells at a density of 1,000 cells/well were seeded in 96-well plates and incubated at 37° C. for 24 hours. A series of different concentrations of compound stocks (500×) were prepared by 3-fold serial dilution in DMSO. These compounds were further diluted in culture media and then added to cells so that the final DMSO concentration was not exceeding 0.25%. After 96 hours of incubation, 50 μL of CellTiter Glo reagent (Promega) was added to each well and luminescence was measured after 10 minutes using EnVision (PerkinElmer). Luminescence from cells treated with DMSO alone was set as Max and % of inhibition was calculated as follows: Inhibition %=(Max-Sample value)/Max×100. Data was analyzed using XL-fit software (ID Business Solutions Ltd.) and IC50, relative IC50, and % of top inhibition was calculated. Some of the compounds in this disclosure were very potent in blocking proliferation of A549 lung cancer cells at low nM range. In addition, potency of inhibiting A549 proliferation correlated well with its binding affinity to PKCs for this series of compounds. In other words, higher affinity binders had stronger inhibitory effects on A549 proliferation. This further support the notion that activation, rather than inhibition, of certain PKC isoforms is required to block proliferation of cancer cells, some of which may harbor K-Ras mutations. This is in sharp contrast to previous literature and common belief that inhibition of PKC is necessary to block cancer cell growth (Kang, 2014, New Journal of Science, 2014:1-36). Data presented here is in agreement with recent findings that many loss-of-function but not gain-of-function mutations of PKC isoforms have been identified in many human cancers (Antal et al., 2015, Cell, 160:489-502).
In general terms: ATP-based viability assays read luminescence as a measure of living cells.

The next experiment deals with CT26 tumors. The experiment can be described thus: CT26 tumor after single dose intratumoral treatment, H&E stain and CD31 IHC. The experiment is classed as in vivo, mouse. As to conditions: for CD31 IHC (counts per mm^2) / H&E Necrotic tumor area (%): individual tumors. As to the method: Method. Each 6-8 weeks old female Balb/c mouse was implanted with 3×10^5 CT26 mouse colon cancer cells in one flank for tumor development. When the average tumor volume reached 95 mm^3, 21 mice were randomized into different groups and were treated via a single IT injection (20 uL) according to the group assignment (different dose and treatment duration) in the table below. Tumors were harvested at 1h, 7h, or 24h post IT injection, and then fixed and processed for paraffin embedding.
Paraffin blocks were sectioned into […] sections using Leica RM2235 microtome. One section was stained for Hematoxylin-Eosin (H&E) using Leica ST5020-CV5030 stainer integrated workstation according to the Manufacture's procedure. Photos were taken using Nikon DS-Ri2. Another section was processed for IHC staining with the CD31 antibody (BD, Cat #550274) at 1:10 dilution. The stained slides were scanned using Leica Aperio VERSA 8 and the images were analyzed using HALO image analysis software system (Indica Labs).

Another experiment addresses T1, C1b domain of human PKCδ (Homo sapiens, UniProt Q05655).
T1 construct: Genes encoding C1b domains of human PKCα, δ, ε, θ, and PKD1 (PKCμ) were synthesized; made in house; host or cells: E. coli BL21(DE3)
Description: biochemical. As to conditions: 3H-PDBu competition. The experiment is classed as binding. Here is the method:
(§2) Compounds described in this disclosure were tested for binding affinity to C1b domain of PKC isoforms. Compound binding affinity to C1b domain of PKC isoforms was derived from competitive binding assay using radioactive tracer ^3H-PDBu and recombinant GST-C1b or full-length of human PKC proteins based on modified procedures from Methods in Molecular Biology, vol.
(§3) Genes encoding C1b domains of human PKCα, δ, ε, θ, and PKD1 (PKCμ) were synthesized and inserted into pGEX-2TK or pGEX-4T1 vectors for expression and production of GST-C1b proteins in E. coli BL21(DE3) via IPTG induction. The target proteins were purified by glutathione sepharose 4B and followed by ion exchange chromatography if needed to achieve purity >70%. Aliquots of the purified proteins were stored at −80 degree for binding assay (storage buffer: 20 mM Tris pH 8.0, 200 mM NaCl, 10% glycerol, 1 mM DTT).
(§4) The plate was incubated at 37° C. on a shaker at 300 rpm for 10 minutes and then put on ice for 20 minutes. […] The bottom of the filter plate was sealed and 50 μL of MicroScint-20 (PerkinElmer) cocktail was added to each well. ^3H-PDBu trapped in each well was counted using PerkinElmer MicroBeta2 Reader. Data were analyzed using GraphPad Prism5 with the model “log(inhibitor) vs. response-variable slope” to fit the IC50, and then IC50 was transformed to Ki using Cheng-Prusoff equation: Ki=IC50/(1+added radio ligand/Kd). Kd is the binding affinity of each protein preparation to ^3H-PDBu, determined experimentally.

A further experiment addresses T2, C1b domain of human PKCε (Homo sapiens, UniProt Q02156).
T2 construct: Genes encoding C1b domains of human PKCα, δ, ε, θ, and PKD1 (PKCμ) were synthesized; made in house; host or cells: E. coli BL21(DE3)
Description: biochemical. The experiment is classed as binding. The following applies: 3H-PDBu competition. Here is the method:
as §2, §3, §4

The next experiment addresses T3, C1b domain of human PKCθ (Homo sapiens, UniProt Q04759).
T3 construct: Genes encoding C1b domains of human PKCα, δ, ε, θ, and PKD1 (PKCμ) were synthesized; made in house; host or cells: E. coli BL21(DE3)
T3 sequence (Q04759 231-281 limits assumed): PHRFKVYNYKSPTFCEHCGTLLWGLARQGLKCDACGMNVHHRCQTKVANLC
The experiment can be described thus: biochemical. The following applies: 3H-PDBu competition. The experiment is classed as binding. As to the method: as §2, §3, §4

Experiment [1] addresses T4, C1b domain of human PKD1 (PKCμ) (Homo sapiens, UniProt Q15139).
T4 construct: Genes encoding C1b domains of human PKCα, δ, ε, θ, and PKD1 (PKCμ) were synthesized; made in house; host or cells: E. coli BL21(DE3)
T4 sequence (Q15139 270-320 limits assumed): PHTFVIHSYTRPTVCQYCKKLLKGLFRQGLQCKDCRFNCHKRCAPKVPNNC
The experiment can be described thus: Competitive 3H-PDBu binding assay, C1b domain of PKD1 (PKCμ). The following applies: 3H-PDBu competition. Here is the method:
as §2, §3, §4

In a further experiment the test system is HL-60 (Leukemia). The experiment can be described thus: Proliferation of HL-60. The experiment is classed as cell-based. Here is the method:
as §1
(§5) The compounds in this disclosure were tested for their potency in blocking proliferation of a few other cancer cells lines, including K-Ras mutant pancreatic cell lines Panc2.13 and KP-4, leukemia cell line HL-60, and lymphoma cell lines Namalwa and Mino. Similar procedures as in Example 67 were followed. Initial cell numbers seeded in 96-well plates were different for different cell lines: 3000 cells/well for Panc2.13; 800-1000 cells/well for KP-4; 5000 cells/well for HL-60; 5000-10000 cells/well for Namalwa and Mino. A ratio of (IC50 of K101)/(IC50 of compound) (data in parenthesis in Table 5) was used to normalize the compound potency from different assay batches to a common comparator K101.

The test system of another experiment is Namalwa (Lymphoma). The experiment can be described thus: Proliferation of Namalwa. The experiment is classed as cell-based. Here is the method: as §1, §5
A further experiment deals with Mino (Lymphoma). The experiment can be described thus: Proliferation of Mino. The experiment is classed as cell-based. As to the method:
as §1, §5

The test system of experiment [2] is NFκB-driven transcription in HeLa-NFκB luciferase reporter cell line. Description: NFκB luciferase reporter assay. As to conditions: Homo sapiens, HeLa, 16 h, read-out: NFκB-luc HeLa cells EC50 (μM). On the technique in general: Reporter assays use an easily measured gene product as a stand-in for the process of interest.
Description: A HeLa-NFκB luciferase reporter cell line (Wuxi Biology) was used to assess a group of PKC activator compounds for their ability to activate NFκB-driven transcription. […] One set of cells was assayed for luciferase activity (Promega, Cat #E1500) and the other set was assayed to determine the number of viable cells (for cell number normalization) using CellTiter-Glo (CTG) kit (Promega, Cat #G7570) according to manufacture's procedures. Normalized data (luciferase value/CTG value) were analyzed using GraphPad Prism5 to calculate EC50 for each compound (see Table 8).
To assess if activation of PKC is required for these compounds to activate NFκB, several PKC inhibitors including broad-spectrum and conventional PKC inhibitors were tested. In the assay described above, PKC inhibitors were added at the same time as the PKC activator compounds.

T1 sequence (Q05655 230-280 limits assumed): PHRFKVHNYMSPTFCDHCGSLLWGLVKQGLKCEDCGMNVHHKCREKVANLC
T2 sequence (Q02156 242-292 limits assumed): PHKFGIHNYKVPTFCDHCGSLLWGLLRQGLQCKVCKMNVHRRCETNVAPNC

The IC50 is the concentration at which inhibition is half-maximal. Turning to `CC1=C[C@H]2[C@@]3(O)[C@H](C)C[C@]4(OC(=O)[C@H](N)CCCCCCc5ccccc5)[C@H]([C@@H]3C=C(COC(=O)[C@@H](N)C(C)C)C[C@]2(O)C1=O)C4(C)C` [listing 1 of 2 here], the IC50 in the experiment on A549 cell line (Homo sapiens, A549, 96 hours, CellTiter Glo) was in the range of 0.03 to 0.06 µM. Besides, the “CD31 IHC (counts per mm^2)” value with CT26 tumors (47.2 μg single IT, 24 h) was 163 counts per mm^2 and 111 counts per mm^2; in the experiment on CT26 tumors (141.6 μg single IT, 24 h), 176 counts per mm^2 and 29 counts per mm^2 and 72 counts per mm^2; in the experiment with CT26 tumors (472 μg single IT, 1 h), 577 counts per mm^2 and 457 counts per mm^2 and 463 counts per mm^2; with CT26 tumors (472 μg single IT, 7 h), 188 counts per mm^2 and 536 counts per mm^2 and 179 counts per mm^2; in the experiment with CT26 tumors (472 μg single IT, 24 h), 155 counts per mm^2 and 187 counts per mm^2 and 118 counts per mm^2. Further, the “H&E Necrotic tumor area (%)” value in the experiment with CT26 tumors (47.2 μg single IT, 24 h) is 40% and 70%; with CT26 tumors (141.6 μg single IT, 24 h), 80% (2×) and 90%; in the experiment on CT26 tumors (472 μg single IT, 1 h) it was 5% and 3% and 0%; with CT26 tumors (472 μg single IT, 7 h) it was 10% and 0% and 25%; in the experiment on CT26 tumors (472 μg single IT, 24 h), 40% and 30% and 90%. Moreover, the “tumors with reduction of CD31 density” value with CT26 tumors (47.2 μg, 7h) is 2 out of 3. Moreover, the “massive cell death in tumors” value in the experiment with CT26 tumors (all three doses, 24h) is given as “up to 90%”.

What is called Ki is a measure of affinity in units of concentration, obtained from inhibition or displacement. Low readings indicate a stronger hold on the target, high ones a looser hold on the target. Take `CCCCCCCCCCCCCC(=O)O[C@@H]1[C@@H](C)[C@@]2(O)[C@@H](C=C(CO)C[C@]3(O)C(=O)C(C)=C[C@@H]23)[C@@H]2C(C)(C)[C@]12OC(C)=O` [Compound K103, 12-O-Tetradecanoylphorbol-13-acetate, reference compound]: the Ki (on C1b domain of human PKCδ; at C1b domain of human PKCε; at C1b domain of human PKCθ; in experiment [1]) was less than 5 nM each time. For the same molecule, the IC50 in the experiment with A549 cell line (96 hours, CellTiter Glo) is less than 0.01 µM.

As usually defined, the EC50 is the concentration giving half of the maximal effect. Turning to `CC1=C[C@H]2[C@@]3(O)[C@H](C)C[C@]4(OC(=O)CCC5CCCC5)[C@H]([C@@H]3C=C(CO)C[C@]2(O)C1=O)C4(C)C`, the Ki at C1b domain of human PKCθ lay within 10 to 30 nM. Besides, the IC50 with A549 cell line (Homo sapiens, A549, 96 h) was in the range of 0.03 to 0.06 µM; in the experiment on HL-60 (Leukemia) (Homo sapiens, HL-60, read-out: IC50 HL-60 (Leukemia)), 30 to 60 nM; in the experiment on Namalwa (Lymphoma) (read-out: IC50 Namalwa (Lymphoma)), 30 to 60 nM; with Mino (Lymphoma) (Homo sapiens, MINO, read-out: IC50 Mino (Lymphoma)), 1 to 10 nM. In addition, the “ratio (IC50 of K101)/(IC50 of compound) HL-60” value in the experiment on HL-60 (Leukemia) was 9.23. Also, in the experiment with Namalwa (Lymphoma), the “ratio (IC50 of K101)/(IC50 of compound) Namalwa” value is listed as 1.73. For the same molecule, in the experiment with Mino (Lymphoma), the “ratio (IC50 of K101)/(IC50 of compound) Mino” value was 11. Further, the EC50 in experiment [2] is 0.06 to 0.1 µM.

As to `CC1=C[C@H]2[C@@]3(O)[C@H](C)C[C@]4(OC(=O)[C@H](N)CCCCCCc5ccccc5)[C@H]([C@@H]3C=C(COC(=O)[C@@H](N)C(C)C)C[C@]2(O)C1=O)C4(C)C` [listing 2 of 2 here], the “reduction of CD31 density, on average, compared with the vehicle control” value in the experiment on CT26 tumors (24h, all dose levels (47.2 μg, 141.6 μg, and 472 μg)) is given as more than 50%.

Consider `CC1=C[C@H]2[C@@]3(O)[C@H](C)C[C@]4(OC(=O)[C@H](N)CCCCCCCCc5ccccc5)[C@H]([C@@H]3C=C(CO)C[C@]2(O)C1=O)C4(C)C`, for which the Ki at C1b domain of human PKCδ, on C1b domain of human PKCε and on C1b domain of human PKCθ was 10 to 30 nM each time. The IC50 in the experiment with A549 cell line (Homo sapiens, A549, 96 h) was in the range of 0.01 to 0.03 µM.
